In brackets after ≈: the same amount, converted by molar mass.
Assays:
Apis mellifera = details: acute; duration: 48 hours; dermal; mortality
Daphnia magna = details: chronic/long-term; duration: 21 days; reproduction
Colinus virginianus = details: acute, mortality
Bibionidae = details: chronic/long-term; duration: 28 days
Anas platyrhynchos = details: reproductive
Aphidius rhopalosiphi = assay: LR50; higher = less toxic; details: acute; duration: 48 hours; mortality

In the case of `Cc1cc(C)c(C2=C(OC(=O)CC(C)(C)C)C3(CCCC3)OC2=O)c(C)c1` [Spiromesifen], the LD50 (Apis mellifera) is reported as over 200 µg/piece, the NOAEL (Rattus norvegicus; acute) is reported as 200 mg/kg-day and the LD50 (Rattus norvegicus; acute, oral, mortality) is reported as over 2500 mg/kg. For the same molecule, the NOEC (Rattus norvegicus; chronic) was 30 mg/kg-day, the NOEC (Daphnia magna) was 0.00025 mg/L and the NOAEL (Mus musculus; chronic, duration: 18 months) was 3 mg/kg-day. The NOAEL (Mus musculus; subchronic, duration: 90 days, oral, clinical chemistry) was 3 mg/kg-day, the LC50 (Tagia sp.; acute, duration: 14 days, mortality) was over 1000 mg/kg and the NOEC (Tagia sp.; chronic/long-term, duration: 56 days, reproduction) was 4.32 mg/kg. It also gave an LC50 (Colinus virginianus) of over 5000 mg/kg, an LD50 (Colinus virginianus) of over 1160 mg/kg and an LD50 (Colinus virginianus; oral, diet) of over 2000 mg/kg. For the same molecule, the NOEC (Bibionidae) was 0.032 mg/L, the LC50 (Oncorhynchus mykiss; acute, duration: 96 hours, mortality) was 0.016 µg/mL (≈ 0.0432 µM) and the NOEC (Oncorhynchus mykiss; chronic/long-term, duration: 97 days, time to swim up) was 0.00473 mg/L. For the same molecule, the NOEC (Anas platyrhynchos) was 229 mg/kg, the LC50 (Anas platyrhynchos; mortality) was over 5000 mg/kg and the LR50 (Aphidius rhopalosiphi) was 40.6 mL/ha.

From EPA's ToxValDB 9.5 (doi:10.2903/j.efsa.2007.105r)
